Measurements from ChEMBL document CHEMBL6078668, “Synthesis and biological evaluation of lappaconitine analogues as potential anti-neuroinflammatory agents by side chain modification and scaffold hopping strategy” (Bioorg Med Chem, 2025).

Experiments:
[1] = Cytotoxicity against C57BL/6 mouse BV-2 cells assessed as survival rate at 30 uM incubated for 24 hrs by MTT assay relative to control; format: toxicity, cell-based; conditions: read-out: Survival
BV-2 = assay: Anti-neuroinflammatory activity against LPS-stimulated C57BL/6 mouse BV-2 cells assessed as inhibition of NO release at 30 uM preincubated with compound for 4 hrs followed by LPS addition and measured after 24 hrs by Griess reagent based assay relative to control; format: functional; conditions: C57BL/6, BV-2, time 28 hrs

Row | SMILES | viability at 24 h, 30 µM [1] [%] | inhibition at 30 µM (BV-2) [%]
1 | CCN1C[C@]2(OC(=O)c3ccccc3NC(=O)c3cccc(OC)c3)CC[C@H](OC)[C@]34C1[C@@H](C[C@H]23)[C@@]1(O)C[C@H](OC)[C@H]2C[C@@H]4[C@]1(O)[C@H]2OC | 107 | 44.9
2 | CCN1C[C@]2(COC(=O)c3ccccc3NS(=O)(=O)c3cccc(F)c3)CC[C@H](OC)[C@]34C1[C@@H](C[C@H]23)[C@@]1(O)C[C@H](OC)[C@H]2C[C@@H]4[C@]1(O)[C@H]2OC | 102 | 20.1
3 | CCN1C[C@]2(OC(=O)c3ccccc3NC(=O)c3ccc(OC)cc3)CC[C@H](OC)[C@]34C1[C@@H](C[C@H]23)[C@@]1(O)C[C@H](OC)[C@H]2C[C@@H]4[C@]1(O)[C@H]2OC | 100 | 45.2
4 | CCN1C[C@]2(OC(=O)c3ccccc3NC(=O)S(=O)(=O)c3ccc(C#N)cc3Cl)CC[C@H](OC)[C@]34C1[C@@H](C[C@H]23)[C@@]1(O)C[C@H](OC)[C@H]2C[C@@H]4[C@]1(O)[C@H]2OC | 99.4 | 12.5
5 | CCN1C[C@]2(O)CC[C@H](OC)[C@]34C1[C@@H](C[C@H]23)[C@@]1(O)C[C@H](OC)[C@H]2C[C@@H]4[C@]1(O)[C@H]2OC | 97.4 | 8.8
6 | CCN1C[C@]2(OC(=O)c3ccccc3NC(=O)S(=O)(=O)c3ccc(C)cc3)CC[C@H](OC)[C@]34C1[C@@H](C[C@H]23)[C@@]1(O)C[C@H](OC)[C@H]2C[C@@H]4[C@]1(O)[C@H]2OC | 102 | 31.7
7 | CCN1C[C@]2(OC(=O)c3ccccc3NC(=O)S(=O)(=O)Cc3ccc([N+](=O)[O-])cc3)CC[C@H](OC)[C@]34C1[C@@H](C[C@H]23)[C@@]1(O)C[C@H](OC)[C@H]2C[C@@H]4[C@]1(O)[C@H]2OC | 98.9 | 22.7
8 | CCN1C[C@]2(OC(=O)c3ccccc3NC(=O)S(=O)(=O)c3ccccc3)CC[C@H](OC)[C@]34C1[C@@H](C[C@H]23)[C@@]1(O)C[C@H](OC)[C@H]2C[C@@H]4[C@]1(O)[C@H]2OC | 97.2 | 31.8
9 | CCN1C[C@]2(OC(=O)c3ccccc3NC(=O)S(=O)(=O)c3ccccn3)CC[C@H](OC)[C@]34C1[C@@H](C[C@H]23)[C@@]1(O)C[C@H](OC)[C@H]2C[C@@H]4[C@]1(O)[C@H]2OC | 100 | 29.9
10 | CCCc1ccc(S(=O)(=O)C(=O)Nc2ccccc2C(=O)O[C@@]23CC[C@H](OC)[C@]45C([C@@H](C[C@H]24)[C@@]2(O)C[C@H](OC)[C@H]4C[C@@H]5[C@]2(O)[C@H]4OC)N(CC)C3)cc1 | 92.3 | 43.4
11 | CCN1C[C@]2(OC(=O)c3ccccc3NC(=O)c3cccc(C#N)c3)CC[C@H](OC)[C@]34C1[C@@H](C[C@H]23)[C@@]1(O)C[C@H](OC)[C@H]2C[C@@H]4[C@]1(O)[C@H]2OC | 101 | 12.8
12 | CCN1C[C@]2(OC(=O)c3ccccc3NC(=O)C3CCOCC3)CC[C@H](OC)[C@]34C1[C@@H](C[C@H]23)[C@@]1(O)C[C@H](OC)[C@H]2C[C@@H]4[C@]1(O)[C@H]2OC | 103 | 36.3
13 | CCN1C[C@]2(OC(=O)c3ccccc3NC(=O)S(=O)(=O)c3csc4ccccc34)CC[C@H](OC)[C@]34C1[C@@H](C[C@H]23)[C@@]1(O)C[C@H](OC)[C@H]2C[C@@H]4[C@]1(O)[C@H]2OC | 100 | 30.7
14 | O=C(O)c1ccccc1NS(=O)(=O)c1ccc(Br)s1 | 96.5 | 18.4
15 | CCN1C[C@]2(OC(=O)c3ccccc3NC(=O)c3cccc(F)c3)CC[C@H](OC)[C@]34C1[C@@H](C[C@H]23)[C@@]1(O)C[C@H](OC)[C@H]2C[C@@H]4[C@]1(O)[C@H]2OC | 107 | 11
16 | CCN1C[C@]2(OC(=O)c3ccccc3NC(=O)c3ccc(OC)c(OC)c3)CC[C@H](OC)[C@]34C1[C@@H](C[C@H]23)[C@@]1(O)C[C@H](OC)[C@H]2C[C@@H]4[C@]1(O)[C@H]2OC | 102 | 14.3
17 | COC(=O)c1ccccc1NS(=O)(=O)c1ccc(Br)s1 | 99.1 | 43.8
18 | CCN1C[C@]2(OC(=O)c3ccccc3NC(=O)c3ccc(Br)cc3)CC[C@H](OC)[C@]34C1[C@@H](C[C@H]23)[C@@]1(O)C[C@H](OC)[C@H]2C[C@@H]4[C@]1(O)[C@H]2OC | 102 | 21.3
19 | CCN1C[C@]2(OC(=O)c3ccccc3NC(=O)S(=O)(=O)c3ccc(OC)c(OC)c3)CC[C@H](OC)[C@]34C1[C@@H](C[C@H]23)[C@@]1(O)C[C@H](OC)[C@H]2C[C@@H]4[C@]1(O)[C@H]2OC | 105 | 19.4

Row | SMILES | viability at 24 h, 30 µM [1] [%] | inhibition at 30 µM (BV-2) [%]
20 | CCN1C[C@]2(COC)CC[C@H](OC)[C@]34C1[C@@H](C[C@H]23)[C@@]1(O)C[C@H](OC)[C@H]2C[C@@H]4[C@]1(O)[C@H]2OC(=O)c1ccccc1N | 101 | 19.4
21 | CCN1C[C@]2(OC(=O)c3ccccc3NC(=O)S(=O)(=O)c3cccc([N+](=O)[O-])c3)CC[C@H](OC)[C@]34C1[C@@H](C[C@H]23)[C@@]1(O)C[C@H](OC)[C@H]2C[C@@H]4[C@]1(O)[C@H]2OC | 106 | 11.7
22 | CCN1C[C@]2(OC(=O)c3ccccc3NC(=O)S(=O)(=O)c3cccc4ccccc34)CC[C@H](OC)[C@]34C1[C@@H](C[C@H]23)[C@@]1(O)C[C@H](OC)[C@H]2C[C@@H]4[C@]1(O)[C@H]2OC | 105 | 30.5
23 | CCN1C[C@]2(OC(=O)c3ccccc3NC(=O)c3ccccc3OC)CC[C@H](OC)[C@]34C1[C@@H](C[C@H]23)[C@@]1(O)C[C@H](OC)[C@H]2C[C@@H]4[C@]1(O)[C@H]2OC | 97 | 34.2
24 | CCN1C[C@]2(OC(=O)c3ccccc3NC(=O)C3CCCCC3)CC[C@H](OC)[C@]34C1[C@@H](C[C@H]23)[C@@]1(O)C[C@H](OC)[C@H]2C[C@@H]4[C@]1(O)[C@H]2OC | 105 | 44.5
25 | CCN1C[C@]2(OC(=O)c3ccccc3NC(=O)C3CCCO3)CC[C@H](OC)[C@]34C1[C@@H](C[C@H]23)[C@@]1(O)C[C@H](OC)[C@H]2C[C@@H]4[C@]1(O)[C@H]2OC (stereo partly specified) | 108 | 14.5
26 | O=C(Nc1ccccc1C(=O)O)c1ccc(Cl)s1 | 98.7 | 32.4
27 | CCN1C[C@]2(OC(=O)c3ccccc3NC(=O)C3CCOC3)CC[C@H](OC)[C@]34C1[C@@H](C[C@H]23)[C@@]1(O)C[C@H](OC)[C@H]2C[C@@H]4[C@]1(O)[C@H]2OC (stereo partly specified) | 109 | 32.4
28 | CCN1C[C@]2(OC(=O)c3ccccc3NC(=O)S(=O)(=O)c3cc(Cl)ccc3OC)CC[C@H](OC)[C@]34C1[C@@H](C[C@H]23)[C@@]1(O)C[C@H](OC)[C@H]2C[C@@H]4[C@]1(O)[C@H]2OC | 94.9 | 6
29 | CCN1C[C@]2(OC(=O)c3ccccc3NC(=O)c3cccc(Cl)c3)CC[C@H](OC)[C@]34C1[C@@H](C[C@H]23)[C@@]1(O)C[C@H](OC)[C@H]2C[C@@H]4[C@]1(O)[C@H]2OC | 104 | 12.9
30 | CCN1C[C@]2(OC(=O)c3ccccc3NC(=O)S(=O)(=O)c3ccccc3OC)CC[C@H](OC)[C@]34C1[C@@H](C[C@H]23)[C@@]1(O)C[C@H](OC)[C@H]2C[C@@H]4[C@]1(O)[C@H]2OC | 103 | 15.2
31 | CCN1C[C@]2(OC(=O)c3ccccc3NC(=O)S(=O)(=O)c3ccccc3C(F)(F)F)CC[C@H](OC)[C@]34C1[C@@H](C[C@H]23)[C@@]1(O)C[C@H](OC)[C@H]2C[C@@H]4[C@]1(O)[C@H]2OC | 107 | 13.7
32 | CCN1C[C@]2(OC(=O)c3ccccc3NC(=O)c3ccccc3I)CC[C@H](OC)[C@]34C1[C@@H](C[C@H]23)[C@@]1(O)C[C@H](OC)[C@H]2C[C@@H]4[C@]1(O)[C@H]2OC | 109 | 13.1
33 | CCN1C[C@]2(OC(=O)c3ccccc3NC(=O)S(=O)(=O)c3ccc(F)c(Cl)c3)CC[C@H](OC)[C@]34C1[C@@H](C[C@H]23)[C@@]1(O)C[C@H](OC)[C@H]2C[C@@H]4[C@]1(O)[C@H]2OC | 93.6 | 26.2
34 | C=C(C)C(=O)Nc1ccccc1C(=O)O[C@@]12CC[C@H](OC)[C@]34C([C@@H](C[C@H]13)[C@@]1(O)C[C@H](OC)[C@H]3C[C@@H]4[C@]1(O)[C@H]3OC)N(CC)C2 | 94.2 | 12.9
35 | CCCCCCC(=O)Nc1ccccc1C(=O)O[C@@]12CC[C@H](OC)[C@]34C([C@@H](C[C@H]13)[C@@]1(O)C[C@H](OC)[C@H]3C[C@@H]4[C@]1(O)[C@H]3OC)N(CC)C2 | 100 | 30
36 | CCN1C[C@]2(OC(=O)c3ccccc3NC(=O)S(=O)(=O)c3ccc(Br)cc3)CC[C@H](OC)[C@]34C1[C@@H](C[C@H]23)[C@@]1(O)C[C@H](OC)[C@H]2C[C@@H]4[C@]1(O)[C@H]2OC | 109 | 40.8
37 | CCN1C[C@]2(OC(=O)c3ccccc3NC(=O)S(=O)(=O)c3ccccc3[N+](=O)[O-])CC[C@H](OC)[C@]34C1[C@@H](C[C@H]23)[C@@]1(O)C[C@H](OC)[C@H]2C[C@@H]4[C@]1(O)[C@H]2OC | 104 | 20.5
38 | COC(=O)c1ccccc1NC(=O)c1ccc(Cl)s1 | 93.5 | 48.6
